The text below walks through data of PubChem BioAssay AID1259411 (Chemical Carcinogenesis Research Information System (CCRIS), 2018).

Activity calls are given as the source filed them. No rule for the calls is given here.

This series deals with rodent carcinogenicity bioassays, tumor incidence. Description: CCRIS carcinogenicity studies. The method in brief:
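Archive of carcinogenicity, mutagenicity, tumor promotion and tumor inhibition results drawn from journals, NCI reports and other sources, expert-reviewed; covers 1985-2011 and is no longer updated.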

`O=C1O[C@H]([C@@H](O)CO)C(O)=C1O`: the carcinogen call was “inactive; negative” (Species: MOUSE, Strain/Sex: B6C3F1/FEMALE, Route: ORAL, Dose: 0, 25000, 50000 PPM IN DIET FOR 103 WK, Dose: 0, 25000, 50000 PPM IN DIET FOR 103 WK); “inactive; negative” (Species: MOUSE, Strain/Sex: B6C3F1/MALE, Route: ORAL, Dose: 0, 25000, 50000 PPM IN DIET FOR 103 WK, Dose: 0, 25000, 50000 PPM IN DIET FOR 103 WK); “inactive; negative” (Species: RAT, Strain/Sex: F344/FEMALE, Route: ORAL, Dose: 0, 25000, 50000 PPM IN DIET FOR 103 WK, Dose: 0, 25000, 50000 PPM IN DIET FOR 103 WK); “inactive; negative” (Species: RAT, Strain/Sex: F344/MALE, Route: ORAL, Dose: 0, 1, 5, 7% IN DIET OF MALE RATS, PARENTAL GENERATION ALSO FED SODIUM ASCORBATE FOR 4 WK BEFORE MATING THEN CONTINUING I, Dose: 0, 1, 5, 7% IN DIET OF MALE RATS, PARENTAL GENERATION ALSO FED SODIUM ASCORBATE FOR 4 WK BEFORE MATING THEN CONTINUING I); “inactive; negative” (Species: RAT, Strain/Sex: F344/MALE, Route: ORAL, Dose: 0, 25000, 50000 PPM IN DIET FOR 103 WK, Dose: 0, 25000, 50000 PPM IN DIET FOR 103 WK); “inactive; negative (significant increase in hyperplasia observed in combined chemical grou” (Species: Rat, Strain/Sex: F344/Male (9-15/group), Route: Oral, Dose: 0, 1%, 1% with 0.2% sodium nitrite in diet for 32 wk, study duration 32 wk in surgically altered rats to produce chronic, Dose: 0, 1%, 1% with 0.2% sodium nitrite in diet for 32 wk, study duration 32 wk in surgically altered rats to produce chronic, Tumor Site: Type of Lesion: Esophagus examined). For the same molecule, the carcinogen call (Species: Rat, Strain/Sex: Non-tg/Male, Route: Oral, Dose: 5% sodium ascorbate in diet, continuous, for 57 wk until sacrifice, Tumor Site: Type of Lesion: Total tumor-bearing animals (20.0% in experimental animals vs 25.0% in controls), no bladder tumors) is “inactive; negative. parallel experiment in hras128 rat line was conducted to determine bla”.
In the case of `[CH3][Hg][O]C(C)=O`, the carcinogen call reads like this: (Species: MOUSE, Strain/Sex: SWISS/FEMALE, Route: ORAL, Dose: 0, 5 PPM (HG) IN DRINKING WATER FOR 70 D THEN 1 PPM (HG) FOR DURATION OF STUDY (STUDY DURATION: LIFE SPAN)) “inactive; negative”; (Species: MOUSE, Strain/Sex: SWISS/MALE, Route: ORAL, Dose: 0, 5 PPM (HG) IN DRINKING WATER FOR 70 D THEN 1 PPM (HG) FOR DURATION OF STUDY (STUDY DURATION: LIFE SPAN)) “inactive; negative”.
For `c1ccc2c(c1)cnc1ccccc12`, the carcinogen call by setting is: (Species: RAT, Strain/Sex: SPRAGUE-DAWLEY/FEMALE, Route: SUBCUTANEOUS, Dose: 0, 200 UMOL/KG IN DMSO INTO SUPRASCAPULAR AREA ON DAY 1 OF LIFE FOLLOWED BY 0, 100 UMOL 1/WK AT WK 2-7 THEN 0, 200 UMOL/, Dose: 0, 200 UMOL/KG IN DMSO INTO SUPRASCAPULAR AREA ON DAY 1 OF LIFE FOLLOWED BY 0, 100 UMOL 1/WK AT WK 2-7 THEN 0, 200 UMOL/) “inactive; negative”; (Species: RAT, Strain/Sex: SPRAGUE-DAWLEY/MALE, Route: SUBCUTANEOUS, Dose: 0, 200 UMOL/KG IN DMSO INTO SUPRASCAPULAR AREA ON DAY 1 OF LIFE FOLLOWED BY 0, 100 UMOL 1/WK AT WK 2-7 THEN 0, 200 UMOL/, Dose: 0, 200 UMOL/KG IN DMSO INTO SUPRASCAPULAR AREA ON DAY 1 OF LIFE FOLLOWED BY 0, 100 UMOL 1/WK AT WK 2-7 THEN 0, 200 UMOL/) “inactive; negative”.
As to `ClC1=C(Cl)C(Cl)(Cl)C(Cl)=C1Cl`, the carcinogen call reads like this: (Species: MOUSE, Strain/Sex: B6C3F1/FEMALE, Route: INHALATION, Dose: 0, 0.01, 0.05, 0.2 PPM IN AIR 6 HR/D 5 D/WK FOR 104 WK (STUDY DURATION: 104 WK), Dose: 0, 0.01, 0.05, 0.2 PPM IN AIR 6 HR/D 5 D/WK FOR 104 WK (STUDY DURATION: 104 WK)) “inactive; negative”; (Species: MOUSE, Strain/Sex: B6C3F1/MALE, Route: INHALATION, Dose: 0, 0.01, 0.05, 0.2 PPM IN AIR 6 HR/D 5 D/WK FOR 104 WK (STUDY DURATION: 104 WK), Dose: 0, 0.01, 0.05, 0.2 PPM IN AIR 6 HR/D 5 D/WK FOR 104 WK (STUDY DURATION: 104 WK)) “inactive; negative”; (Species: RAT, Strain/Sex: F344/FEMALE, Route: INHALATION, Dose: 0, 0.01, 0.05, 0.2 PPM IN AIR 6 HR/D 5 D/WK FOR 104 WK (STUDY DURATION: 104 WK), Dose: 0, 0.01, 0.05, 0.2 PPM IN AIR 6 HR/D 5 D/WK FOR 104 WK (STUDY DURATION: 104 WK)) “inactive; negative”; (Species: RAT, Strain/Sex: F344/MALE, Route: INHALATION, Dose: 0, 0.01, 0.05, 0.2 PPM IN AIR 6 HR/D 5 D/WK FOR 104 WK (STUDY DURATION: 104 WK), Dose: 0, 0.01, 0.05, 0.2 PPM IN AIR 6 HR/D 5 D/WK FOR 104 WK (STUDY DURATION: 104 WK)) “inactive; negative”.
Take `COP(=S)(OC)Oc1ccc([N+](=O)[O-])cc1`: the carcinogen call is “inactive; negative” (Species: MOUSE, Strain/Sex: B6C3F1/FEMALE, Route: ORAL, Dose: 0, 62.5, 125 PPM IN DIET, Dose: 0, 62.5, 125 PPM IN DIET); “inactive; negative” (Species: MOUSE, Strain/Sex: B6C3F1/MALE, Route: ORAL, Dose: 0, 35, 77 PPM IN DIET, TWA, Dose: 0, 35, 77 PPM IN DIET, TWA); “inactive; negative” (Species: RAT, Strain/Sex: F344/FEMALE, Route: ORAL, Dose: 0, 20, 40 PPM IN DIET, Dose: 0, 20, 40 PPM IN DIET); “inactive; negative” (Species: RAT, Strain/Sex: F344/MALE, Route: ORAL, Dose: 0, 20, 40 PPM IN DIET, Dose: 0, 20, 40 PPM IN DIET).
In the case of `CCN(Cc1cccc(S(=O)(=O)O)c1)c1ccc(C(=C2C=CC(=[N+](CC)Cc3cccc(S(=O)(=O)O)c3)C=C2)c2ccccc2S(=O)(=O)[O-])cc1`, the carcinogen call (Species: MOUSE, Strain/Sex: CD-1/FEMALE, Route: ORAL, Dose: 0, 0.5, 1.5, 5% IN DIET FOR 104 WK (STUDY DURATION: LIFETIME), Dose: 0, 0.5, 1.5, 5% IN DIET FOR 104 WK (STUDY DURATION: LIFETIME)) was “inactive; negative”; the carcinogen call (Species: MOUSE, Strain/Sex: CD-1/MALE, Route: ORAL, Dose: 0, 0.5, 1.5, 5% IN DIET FOR 104 WK (STUDY DURATION: LIFETIME), Dose: 0, 0.5, 1.5, 5% IN DIET FOR 104 WK (STUDY DURATION: LIFETIME)) is “inactive; negative”; the carcinogen call (Species: MOUSE, Strain/Sex: ICR/FEMALE, Route: DERMAL, Dose: 0, 1 MG IN 0.1 ML DISTILLED WATER 2/WK FOR A MEAN TOTAL DOSE OF 128.8 MG (STUDY DURATION: 18 MO)) was “inactive; negative”; the carcinogen call (Species: MOUSE, Strain/Sex: ICR/MALE, Route: DERMAL, Dose: 0, 1 MG IN 0.1 ML DISTILLED WATER 2/WK FOR A MEAN TOTAL DOSE OF 128.8 MG (STUDY DURATION: 18 MO)) is “inactive; negative”; the carcinogen call (Species: RAT, Route: SUBCUTANEOUS, Tumor Site: Type of Lesion: INJECTION SITE) is “active; positive”; the carcinogen call (Species: RAT, Strain/Sex: STRAIN-CD/FEMALE, Route: ORAL, Dose: 0, 0.1, 1, 2% IN DIET FOR 111 WK (PARENTS FED 0; 0.1; 1; 2% RESPECTIVELY IN DIET) (STUDY DURATION: LIFETIME), Dose: 0, 0.1, 1, 2% IN DIET FOR 111 WK (PARENTS FED 0; 0.1; 1; 2% RESPECTIVELY IN DIET) (STUDY DURATION: LIFETIME)) was “inactive; negative”. Moreover, the carcinogen call (Species: RAT, Strain/Sex: STRAIN-CD/MALE, Route: ORAL, Dose: 0, 0.1, 1, 2% IN DIET FOR 116 WK (PARENTS FED 0; 0.1; 1; 2% RESPECTIVELY IN DIET) (STUDY DURATION: LIFETIME), Dose: 0, 0.1, 1, 2% IN DIET FOR 116 WK (PARENTS FED 0; 0.1; 1; 2% RESPECTIVELY IN DIET) (STUDY DURATION: LIFETIME)) is “inactive; negative”.
Regarding `CC1=NN(c2ccccc2)C(=O)C1`, the carcinogen call (Species: MOUSE, Strain/Sex: B6C3F1/FEMALE, Route: ORAL, Dose: 0, 7500, 15000 PPM IN DIET, Dose: 0, 7500, 15000 PPM IN DIET) is “inactive; negative”; the carcinogen call (Species: MOUSE, Strain/Sex: B6C3F1/MALE, Route: ORAL, Dose: 0, 7500, 15000 PPM IN DIET, Dose: 0, 7500, 15000 PPM IN DIET) is “inactive; negative”; the carcinogen call (Species: RAT, Strain/Sex: F344/FEMALE, Route: ORAL, Dose: 0, 2500, 5000 PPM IN DIET, Dose: 0, 2500, 5000 PPM IN DIET) was “inactive; negative”; the carcinogen call (Species: RAT, Strain/Sex: F344/MALE, Route: ORAL, Dose: 0, 2500, 5000 PPM IN DIET, Dose: 0, 2500, 5000 PPM IN DIET) is “inactive; negative”.
